Reference: paper PMC8709454, “Enhanced Skin Delivery of Therapeutic Peptides Using Spicule-Based Topical Delivery Systems” (Pharmaceutics, 2021)

Tested on: imiquimod-induced psoriatic mice
Details: subcutaneous injection of CysA (3 mg/mL, 100 μL, 7 times, day 1 to day 7); psoriasis mice; HPLC; mean ± SD
Procedure: BALB/c mice were used to develop the psoriatic model. […] The back hair of the mice was shaved.
Briefly, blood (500 μL) was collected from the mice orbit and mixed with 4 mL ether. […] Mice skin, liver, and kidney samples were collected and weighed. […] In addition, the mice skin in the treatment area and the non-treated area was cryo-sectioned and stained with hematoxylin and eosin. The epidermal thickness of each skin sample was measured at three random sites with ImageJ software (V1.8.0).

For cyclosporine A [CysA], the “drug accumulation in mice kidney” value was 64.07 ± 10.25 (μg/g)/mg.
